Several values for one entry are separate records, joined by “and”; a condition that tells them apart may be missing. Equal entries are not always repeated. Where two headings read alike, the source gives them in different places. Numbered stars: 1 amine (or outer) side, 2 acyl side, 3 side chain; on linkers, the order of the positions; unused ones are H or OH. Bridge positions count the residues as written; N and C are the ends. Square brackets hold non-standard residues; d marks the D form. Peptide text beside a SMILES is read from it. * marks the point of attachment. Orn(4R-OH,5R-OH) = O=C([C@H](C[C@@H](O)[C@@H](O)N[*:3])N[*:1])[*:2]; hTyr(3S-OH,4S-OH) = N[C@H](C(=O)O)[C@H](O)[C@@H](O)c1ccc(O)cc1; Pro(3S-OH,4S-Me) = C[C@H]1CN[C@H](C(=O)O)[C@H]1O; Palmitoleoyl = CCCCCC/C=C\CCCCCCCC(=O)*; Heptadecanoyl = CCCCCCCCCCCCCCCCC(=O)*; Oleoyl = CCCCCCCC/C=C\CCCCCCCC(=O)*; X2 = CCCCC/C=C/C/C=C/CCCCCCCC(=O)*; X4 = CCCCCCCC/C=C\CCCCCCCCCC(=O)*; Hyp = O=C(O)[C@@H]1C[C@@H](O)CN1; X3 = CCCCCCCC/C=C/CCCCCCCC(=O)*; X6 = CCCCCC/C=C\CCCCCCCCCC(=O)*; X5 = CCCCCC/C=C/CCCCCCCC(=O)*; Lauroyl = CCCCCCCCCCCC(=O)*
Assays:
[1] = Blood levels after oral administration in mice (bioassay vs. Aspergillus montevidensis A35137); conditions: mouse, in vivo; for concentration at 4 h: po, 416 mg/kg; for Blood Levels After Oral Administration In Mice: 240 min
Source text: determined by bioassay vs. Aspergillus montevidensis A35137.

Candida albicans A-26 [2] = assay: In vivo activity against Candida albicans A-26 infection in mice; parameters: species or system mice infected with Candida albicans A-26; conditions: mice, subcutaneous; for ED50 / minimal effective dose: Candida albicans, A26, sc, 24 h; for ED50: increase in survival time, read-out: ED50; for minimal effective dose: read-out: Lowest Active Dose
Procedure: The results of in vivo tests to evaluate the effectiveness of the compound of Examples 1-16 against an infection caused by Candida albicans A-26 in mice are given in Table V, where activity is measured by the ED50 value (the dose in mg/kg. required to cure 50% of the test animals). Where an ED50 value was not obtained, activity is indicated by the lowest dose at which a significant anti-fungal effect is observed. In this test, groups of male albino mice (specific pathogen free), weighing 18 to 20 grams, are infected intravenously with Candida albicans A-26. The animals are X-irradiated 24 hours prior to infection at about 50 roentgens per minute for 8 minutes (400 total dose) to reduce immune responses to the infecting organism. At 0, 4, and 24 hours post infection each group of mice is given graded doses subcutaneously of the test compound as a suspension in 33% polyethylene glycol-water. The day of death for each animal is recorded.
mg/kg. Dosages given 0, 4, and 24 hours post injection as suspension of
test compound in 30% PEG--H2 O. Number of mice receiving test
compounds at each dosage level; 6 mice per group. Number of mice in
control (untreated) group: 10 mice per group.
**As measured by increase in survival time of treated animals versus
control, calculated by method of Reed v Mueuch, American J. Hygiene, 27,

[3] = system: Trichophyton mentagrophytes #6; assay: Agar plate disc diffusion test (MIC); assay type: cell-based; conditions: 0.01M sodium borate pH 7.5; 20 μg/disc top, twofold dilutions; 24 hours, 30° C.
Procedure: (§1) Tables II and III give the results of the testing in vitro of the compounds of Examples 1-16 by agar-plate disc-diffusion methods. In Table II activity is measured by the size (diameter in mm.) of the observed zone of inhibition of the microorganism produced by the test compound. In Table III, activity is measured by the minimal inhibitory concentration (MIC) of the substance (μg/dic) required to inhibit growth of the test organism. Table IV gives the results of the testing in vitro of the n-tridecanoyl derivative of A30912A nucleus (Formula III, R is n-C12 H25) against five strains of Candida albicans by the agar dilution method. In […] activity is measured by the minimal inhibitory concentration (MIC) of the substance (μg/ml) required to inhibit the test organism.
(§2) *Compounds were suspended in 0.01M sodium borate solution, pH 7.5. The
(§3) compounds were tested at 20 μg/disc at top level and at twofold
(§4) dilutions until end points were reached. Incubation: 24 hours; 30°

[4] = system: Saccharomyces pastoranius X-52; assay: Agar plate disc diffusion test (zone of inhibition); assay type: cell-based, Saccharomyces pastorianus; conditions: X52, suspension in methanol 1 mg/ml, 7mm disc, 24-48 hours at 25-37° C., read-out: Size of zone of inhibition, Saccharomyces pastoranius X-52
Procedure: as §1
(§5) ^(a) Compounds were tested as suspension in methanol at a
(§6) concentration of 1 mg/ml. by dipping a 7mm disc into the suspension and
(§7) placing it on the agar surface. Incubation: 24-48 hours at 25-37°

Candida albicans A-26 [5] = assay: Agar plate disc diffusion test (MIC); assay type: cell-based; conditions: 0.01M sodium borate pH 7.5; 20 μg/disc top, twofold dilutions; 24 hours, 30° C.
Procedure: as §1, §2, §3, §4

Neurospora crassa 846 = assay: Agar plate disc diffusion test (zone of inhibition); assay type: cell-based; conditions: Neurospora crassa, 846, suspension in methanol 1 mg/ml, 7mm disc
Procedure: as §1, §5, §6, §7

Candida albicans A-26 [6] = assay: as above; assay type: cell-based; conditions: suspension in methanol 1 mg/ml, 7mm disc; 24-48 hours at 25-37° C.
Procedure: as §1, §5, §6, §7

[7] = system: Trichophyton mentagraphytes A-23; assay: as above; assay type: cell-based, Trichophyton mentagrophytes; conditions: A23, suspension in methanol 1 mg/ml, 7mm disc
Procedure: as §1, §5, §6, §7

[8] = schedule A (40, 20, 15, and 10 mg/kg), 0, 4, 24 hours
[9] = *distinct measurable zone of inhibition with regrowth of organism around disc, read-out: Size of zone of inhibition, Neurospora crassa 846 (*)
[10] = 24-48 hours at 25-37° C., read-out: Size of zone of inhibition, Trichophyton mentagraphytes A-23
[11] = schedule B (80, 40, 20, 10 mg/kg), 0, 4, 24 hours
[12] = 24-48 hours at 25-37° C., read-out: Size of zone of inhibition, Neurospora crassa 846
[13] = *distinct measurable zone of inhibition with regrowth of organism around disc, read-out: Size of zone of inhibition, Trichophyton mentagraphytes A-23 (*)

Compound	concentration at 4 h [1]	MIC, Trichophyton mentagrophytes #6 [3]	MIC, Candida albicans A-26 (Candida albicans A-26 [5])	Blood Levels After Oral Administration In Mice [1]	ED50 (Candida albicans A-26 [2]; [8])	minimal effective dose (Candida albicans A-26 [2]; [8])	zone of inhibition at 1000 µg/mL [4]	zone of inhibition at 1000 µg/mL (Neurospora crassa 846; [9])	Size of zone of inhibition, Candida albicans A-26 (Candida albicans A-26 [6])	zone of inhibition at 1000 µg/mL [7, 10]	ED50 (Candida albicans A-26 [2]; [11])	minimal effective dose (Candida albicans A-26 [2]; [11])	zone of inhibition at 1000 µg/mL (Neurospora crassa 846; [12])	zone of inhibition at 1000 µg/mL [7, 13]	Lowest Active Dose (Candida albicans A-26 [2]; [8])
CCCCCC/C=C\CCCCCCCC(=O)N[C@H]1C[C@@H](O)[C@@H](O)NC(=O)[C@@H]2[C@@H](O)[C@@H](C)CN2C(=O)[C@H]([C@@H](C)O)NC(=O)[C@H]([C@H](O)[C@@H](O)c2ccc(O)cc2)NC(=O)[C@@H]2C[C@@H](O)CN2C(=O)[C@H]([C@@H](C)O)NC1=O [Example 4] (Palmitoleoyl-[Orn(4R-OH,5R-OH)]T[Hyp][hTyr(3S-OH,4S-OH)]T[Pro(3S-OH,4S-Me)]; lactam 1-C)	190 ng/mL	< 0.039 μg/disc			> 40 mg/kg	20 mg/kg									
CCCCC/C=C/C/C=C/CCCCCCCC(=O)N[C@H]1C[C@@H](O)[C@@H](O)NC(=O)[C@@H]2[C@@H](O)[C@@H](C)CN2C(=O)[C@H]([C@@H](C)O)NC(=O)[C@H]([C@H](O)[C@@H](O)c2ccc(O)cc2)NC(=O)[C@@H]2C[C@@H](O)CN2C(=O)[C@H]([C@@H](C)O)NC1=O [Example 10] (X2-[Orn(4R-OH,5R-OH)]T[Hyp][hTyr(3S-OH,4S-OH)]T[Pro(3S-OH,4S-Me)]; lactam 1-C)	610 ng/mL	< 0.039 μg/disc	0.156 μg/disc		16 mg/kg	10 mg/kg	24 mm	26 mm	24 mm	36 mm					
CCCCCCCCCCCC(=O)N[C@H]1C[C@@H](O)[C@@H](O)NC(=O)[C@@H]2[C@@H](O)[C@@H](C)CN2C(=O)[C@H]([C@@H](C)O)NC(=O)[C@H]([C@H](O)[C@@H](O)c2ccc(O)cc2)NC(=O)[C@@H]2C[C@@H](O)CN2C(=O)[C@H]([C@@H](C)O)NC1=O [Example 1] (Lauroyl-[Orn(4R-OH,5R-OH)]T[Hyp][hTyr(3S-OH,4S-OH)]T[Pro(3S-OH,4S-Me)]; lactam 1-C)		0.078 μg/disc	1.25 μg/disc	0 ng/mL			16 mm		25 mm		62 mg/kg	20 mg/kg	40 mm		
CCCCCCCC/C=C/CCCCCCCC(=O)N[C@H]1C[C@@H](O)[C@@H](O)NC(=O)[C@@H]2[C@@H](O)[C@@H](C)CN2C(=O)[C@H]([C@@H](C)O)NC(=O)[C@H]([C@H](O)[C@@H](O)c2ccc(O)cc2)NC(=O)[C@@H]2C[C@@H](O)CN2C(=O)[C@H]([C@@H](C)O)NC1=O [Example 8] (X3-[Orn(4R-OH,5R-OH)]T[Hyp][hTyr(3S-OH,4S-OH)]T[Pro(3S-OH,4S-Me)]; lactam 1-C)	65000 ng/mL	< 0.039 μg/disc	0.156 μg/disc		11 mg/kg	10 mg/kg	18 mm		21 mm				32 mm	31 mm	
CCCCCC/C=C\CCCCCCCCCC(=O)N[C@H]1C[C@@H](O)[C@@H](O)NC(=O)[C@@H]2[C@@H](O)[C@@H](C)CN2C(=O)[C@H]([C@@H](C)O)NC(=O)[C@H]([C@H](O)[C@@H](O)c2ccc(O)cc2)NC(=O)[C@@H]2C[C@@H](O)CN2C(=O)[C@H]([C@@H](C)O)NC1=O [Example 9] (X6-[Orn(4R-OH,5R-OH)]T[Hyp][hTyr(3S-OH,4S-OH)]T[Pro(3S-OH,4S-Me)]; lactam 1-C)	4200 ng/mL	< 0.039 μg/disc	0.312 μg/disc		> 40 mg/kg	40 mg/kg									
CCCCCC/C=C/CCCCCCCC(=O)N[C@H]1C[C@@H](O)[C@@H](O)NC(=O)[C@@H]2[C@@H](O)[C@@H](C)CN2C(=O)[C@H]([C@@H](C)O)NC(=O)[C@H]([C@H](O)[C@@H](O)c2ccc(O)cc2)NC(=O)[C@@H]2C[C@@H](O)CN2C(=O)[C@H]([C@@H](C)O)NC1=O [Example 3] (X5-[Orn(4R-OH,5R-OH)]T[Hyp][hTyr(3S-OH,4S-OH)]T[Pro(3S-OH,4S-Me)]; lactam 1-C)					40 mg/kg	20 mg/kg	19 mm	40 mm	24 mm					50 mm	

Now from value to molecule, other results behind:

concentration at 4 h [1]	MIC, Trichophyton mentagrophytes #6 [3]	MIC, Candida albicans A-26 (Candida albicans A-26 [5])	Blood Levels After Oral Administration In Mice [1]	Compound	ED50 (Candida albicans A-26 [2]; [8])	minimal effective dose (Candida albicans A-26 [2]; [8])	zone of inhibition at 1000 µg/mL [4]	zone of inhibition at 1000 µg/mL (Neurospora crassa 846; [9])	Size of zone of inhibition, Candida albicans A-26 (Candida albicans A-26 [6])	zone of inhibition at 1000 µg/mL [7, 10]	ED50 (Candida albicans A-26 [2]; [11])	minimal effective dose (Candida albicans A-26 [2]; [11])	zone of inhibition at 1000 µg/mL (Neurospora crassa 846; [12])	zone of inhibition at 1000 µg/mL [7, 13]	Lowest Active Dose (Candida albicans A-26 [2]; [8])
97000 ng/mL	0.039 μg/disc	0.625 μg/disc		CCCCCCCCCCCCCCCCC(=O)N[C@H]1C[C@@H](O)[C@@H](O)NC(=O)[C@@H]2[C@@H](O)[C@@H](C)CN2C(=O)[C@H]([C@@H](C)O)NC(=O)[C@H]([C@H](O)[C@@H](O)c2ccc(O)cc2)NC(=O)[C@@H]2C[C@@H](O)CN2C(=O)[C@H]([C@@H](C)O)NC1=O [Example 5] (Heptadecanoyl-[Orn(4R-OH,5R-OH)]T[Hyp][hTyr(3S-OH,4S-OH)]T[Pro(3S-OH,4S-Me)]; lactam 1-C)	9 mg/kg	≥ 5 mg/kg	30 mm		18 mm				21 mm	40 mm	
		0.625 μg/disc	0 ng/mL	CCCCCCCC/C=C\CCCCCCCC(=O)N[C@H]1C[C@@H](O)[C@@H](O)NC(=O)[C@@H]2[C@@H](O)[C@@H](C)CN2C(=O)[C@H]([C@@H](C)O)NC(=O)[C@H]([C@H](O)[C@@H](O)c2ccc(O)cc2)NC(=O)[C@@H]2C[C@@H](O)CN2C(=O)[C@H]([C@@H](C)O)NC1=O [Example 7] (Oleoyl-[Orn(4R-OH,5R-OH)]T[Hyp][hTyr(3S-OH,4S-OH)]T[Pro(3S-OH,4S-Me)]; lactam 1-C)		10 mg/kg	19 mm		23 mm	1 mm			18 mm		20 mg/kg
		1.25 μg/disc and 2.5 μg/disc		CCCCCCCC/C=C\CCCCCCCCCC(=O)N[C@H]1C[C@@H](O)[C@@H](O)NC(=O)[C@@H]2[C@@H](O)[C@@H](C)CN2C(=O)[C@H]([C@@H](C)O)NC(=O)[C@H]([C@H](O)[C@@H](O)c2ccc(O)cc2)NC(=O)[C@@H]2C[C@@H](O)CN2C(=O)[C@H]([C@@H](C)O)NC1=O [Example 14] (X4-[Orn(4R-OH,5R-OH)]T[Hyp][hTyr(3S-OH,4S-OH)]T[Pro(3S-OH,4S-Me)]; lactam 1-C)		10 mg/kg	18 mm		22 mm				18 mm	23 mm	
